Results as given in ChEMBL document CHEMBL1201862, “PubChem BioAssay data set” (2004).
Calls of active or inactive are those of the source. Rule as the data show it: actives have a measured IC50 and inactives only a lower limit.

Target: Envelope glycoprotein gp160 (Human immunodeficiency virus 1, UniProt Q6QLK5)
Experiment: inhibitors of HIV fusion peptide binding, primary screen, biochemical, uHTS, fluorescence dequenching (AID 1986)

Sequence of Envelope glycoprotein gp160 (Q6QLK5 whole entry, the tested form may be a part): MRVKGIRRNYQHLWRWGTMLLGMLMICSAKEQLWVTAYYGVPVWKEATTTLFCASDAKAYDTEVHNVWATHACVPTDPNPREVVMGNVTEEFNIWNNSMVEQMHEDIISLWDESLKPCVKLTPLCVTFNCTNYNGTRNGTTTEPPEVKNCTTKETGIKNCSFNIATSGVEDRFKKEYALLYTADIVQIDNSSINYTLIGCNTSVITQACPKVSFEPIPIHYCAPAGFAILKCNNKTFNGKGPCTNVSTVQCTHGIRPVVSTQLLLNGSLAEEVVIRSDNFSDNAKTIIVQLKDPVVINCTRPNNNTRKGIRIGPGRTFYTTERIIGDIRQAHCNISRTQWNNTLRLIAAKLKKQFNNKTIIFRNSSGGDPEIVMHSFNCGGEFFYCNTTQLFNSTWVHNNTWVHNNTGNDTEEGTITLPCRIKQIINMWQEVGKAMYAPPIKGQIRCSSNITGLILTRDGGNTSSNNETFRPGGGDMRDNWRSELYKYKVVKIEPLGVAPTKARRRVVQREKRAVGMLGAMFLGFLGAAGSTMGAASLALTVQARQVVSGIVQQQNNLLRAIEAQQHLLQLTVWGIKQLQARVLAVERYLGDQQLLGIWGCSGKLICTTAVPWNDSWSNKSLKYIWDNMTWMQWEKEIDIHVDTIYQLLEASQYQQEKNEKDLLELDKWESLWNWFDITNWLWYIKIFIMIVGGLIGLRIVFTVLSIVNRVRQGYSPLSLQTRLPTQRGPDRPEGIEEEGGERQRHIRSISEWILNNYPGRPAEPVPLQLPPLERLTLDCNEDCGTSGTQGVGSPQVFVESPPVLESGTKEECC

In the case of `CCOC(=O)C1=C(C)N=c2s/c(=C\c3ccc(OCC(=O)O)c(OC)c3)c(=O)n2C1c1ccc(OC)cc1` (stereo unspecified), the IC50 is reported as 23.9 µM (active).
